# ChEMBL document CHEMBL3046942, “Synthesis and biological activity of new cycloalkylthiophene-Schiff bases and their Cr(III) and Zn(II) complexes” (2010)
# How the values were obtained:
# Pseudomonas putida [1] = assay: Antibacterial activity against Pseudomonas putida at 10 ug after 24 hr by agar well diffusion method; assay type: functional; conditions: read-out: DIZ
# Proteus [2] = assay: Antibacterial activity against Proteus OX2 Wrah at 10 ug after 24 hr by agar well diffusion method; assay type: functional; conditions: read-out: DIZ
# Shigella boydii [3] = assay: Antibacterial activity against Shigella boydii type 16 at 10 ug after 24 hr by agar well diffusion method; assay type: functional; conditions: type 16, 24 h, read-out: DIZ
# Shigella boydii [4] = assay: Antibacterial activity against Shigella boydii type 11 at 10 ug after 24 hr by agar well diffusion method; assay type: functional; conditions: type 11, 24 h, read-out: DIZ
# Staphylococcus aureus [5] = assay: Antibacterial activity against Staphylococcus aureus ATCC 25923 at 10 ug after 24 hr by agar well diffusion method; assay type: functional; conditions: ATCC 25923, 24 h, read-out: DIZ
# Shigella boydii [6] = assay: Antibacterial activity against Shigella boydii type 6 RSKK-96043 at 10 ug after 24 hr by agar well diffusion method; assay type: functional; conditions: type 6 RSKK-96043, 24 h, read-out: DIZ
# Salmonella typhimurium [7] = assay: Antibacterial activity against Salmonella enterica subsp. enterica serovar Typhi H NCTC 901.8394 at 10 ug after 24 hr by agar well diffusion method; assay type: functional; conditions: H NCTC 901.8394, 24 h, read-out: DIZ
# Listeria monocytogenes [8] = assay: Antibacterial activity against Listeria monocytogenes ATCC 19115 at 10 ug after 24 hr by agar well diffusion method; assay type: functional; conditions: ATCC 19115, 24 h, read-out: DIZ
# Escherichia coli [9] = assay: Antibacterial activity against Escherichia coli ATCC 1280 at 10 ug after 24 hr by agar well diffusion method; assay type: functional; conditions: ATCC 1280, 24 h, read-out: DIZ
# Pseudomonas putida [10] = assay: Antibacterial activity against Pseudomonas putida at 30 ug after 24 hr by agar well diffusion method; assay type: functional; conditions: read-out: DIZ
# Escherichia coli [11] = assay: Antibacterial activity against Escherichia coli ATCC 1280 at 30 ug after 24 hr by agar well diffusion method; assay type: functional; conditions: ATCC 1280, 24 h, read-out: DIZ
# Proteus [12] = assay: Antibacterial activity against Proteus OX2 Wrah at 30 ug after 24 hr by agar well diffusion method; assay type: functional; conditions: read-out: DIZ
# Shigella boydii [13] = assay: Antibacterial activity against Shigella boydii type 6 RSKK-96043 at 30 ug after 24 hr by agar well diffusion method; assay type: functional; conditions: type 6 RSKK-96043, 24 h, read-out: DIZ
# Listeria monocytogenes [14] = assay: Antibacterial activity against Listeria monocytogenes ATCC 19115 at 30 ug after 24 hr by agar well diffusion method; assay type: functional; conditions: ATCC 19115, 24 h, read-out: DIZ
# Shigella boydii [15] = assay: Antibacterial activity against Shigella boydii type 11 at 30 ug after 24 hr by agar well diffusion method; assay type: functional; conditions: type 11, 24 h, read-out: DIZ
# Shigella boydii [16] = assay: Antibacterial activity against Shigella boydii type 16 at 30 ug after 24 hr by agar well diffusion method; assay type: functional; conditions: type 16, 24 h, read-out: DIZ
# Staphylococcus aureus [17] = assay: Antibacterial activity against Staphylococcus aureus ATCC 25923 at 30 ug after 24 hr by agar well diffusion method; assay type: functional; conditions: ATCC 25923, 24 h, read-out: DIZ
# Salmonella typhimurium [18] = assay: Antibacterial activity against Salmonella enterica subsp. enterica serovar Typhi H NCTC 901.8394 at 30 ug after 24 hr by agar well diffusion method; assay type: functional; conditions: H NCTC 901.8394, 24 h, read-out: DIZ
# Shigella boydii [19] = assay: Antibacterial activity against Shigella boydii type 6 RSKK-96043 at 5 ug after 24 hr by agar well diffusion method; assay type: functional; conditions: type 6 RSKK-96043, 24 h, read-out: DIZ
# Staphylococcus aureus [20] = assay: microbe, parasite or virus in culture; conditions: ATCC 25923, 24 h, read-out: DIZ
# Pseudomonas putida [21] = assay: Antibacterial activity against Pseudomonas putida at 5 ug after 24 hr by agar well diffusion method; assay type: functional; conditions: read-out: DIZ
# Proteus [22] = assay: Antibacterial activity against Proteus OX2 Wrah at 5 ug after 24 hr by agar well diffusion method; assay type: functional; conditions: read-out: DIZ
# Shigella boydii [23] = assay: Antibacterial activity against Shigella boydii type 11 at 5 ug after 24 hr by agar well diffusion method; assay type: functional; conditions: type 11, 24 h, read-out: DIZ
# Listeria monocytogenes [24] = assay: Antibacterial activity against Listeria monocytogenes ATCC 19115 at 5 ug after 24 hr by agar well diffusion method; assay type: functional; conditions: ATCC 19115, 24 h, read-out: DIZ
# Shigella boydii [25] = assay: Antibacterial activity against Shigella boydii type 16 at 5 ug after 24 hr by agar well diffusion method; assay type: functional; conditions: type 16, 24 h, read-out: DIZ
# Salmonella typhimurium [26] = assay: Antibacterial activity against Salmonella enterica subsp. enterica serovar Typhi H NCTC 901.8394 at 5 ug after 24 hr by agar well diffusion method; assay type: functional; conditions: H NCTC 901.8394, 24 h, read-out: DIZ
# Staphylococcus aureus [27] = assay: Antibacterial activity against Staphylococcus aureus ATCC 25923 at 25 ug after 24 hr by agar well diffusion method; assay type: functional; conditions: ATCC 25923, 24 h, read-out: DIZ
# Salmonella typhimurium [28] = assay: Antibacterial activity against Salmonella enterica subsp. enterica serovar Typhi H NCTC 901.8394 at 25 ug after 24 hr by agar well diffusion method; assay type: functional; conditions: H NCTC 901.8394, 24 h, read-out: DIZ
# Shigella boydii [29] = assay: Antibacterial activity against Shigella boydii type 11 at 25 ug after 24 hr by agar well diffusion method; assay type: functional; conditions: type 11, 24 h, read-out: DIZ
# Shigella boydii [30] = assay: Antibacterial activity against Shigella boydii type 6 RSKK-96043 at 25 ug after 24 hr by agar well diffusion method; assay type: functional; conditions: type 6 RSKK-96043, 24 h, read-out: DIZ
# Shigella boydii [31] = assay: Antibacterial activity against Shigella boydii type 16 at 25 ug after 24 hr by agar well diffusion method; assay type: functional; conditions: type 16, 24 h, read-out: DIZ
# Listeria monocytogenes [32] = assay: Antibacterial activity against Listeria monocytogenes ATCC 19115 at 25 ug after 24 hr by agar well diffusion method; assay type: functional; conditions: ATCC 19115, 24 h, read-out: DIZ
# Proteus [33] = assay: Antibacterial activity against Proteus OX2 Wrah at 25 ug after 24 hr by agar well diffusion method; assay type: functional; conditions: read-out: DIZ
# Pseudomonas putida [34] = assay: Antibacterial activity against Pseudomonas putida at 25 ug after 24 hr by agar well diffusion method; assay type: functional; conditions: read-out: DIZ
# Escherichia coli [35] = assay: microbe, parasite or virus in culture; conditions: ATCC 1280, 24 h, read-out: DIZ
compound,measurement,setting,value
CC1(C)S[C@@H]2[C@H](NC(=O)[C@H](N)c3ccccc3)C(=O)N2[C@H]1C(=O)O [AMPICILLIN],zone of inhibition at 10 µg/disc,Pseudomonas putida [1],8 mm
same,zone of inhibition at 10 µg/disc,Proteus [2],9 mm
same,zone of inhibition at 10 µg/disc,Shigella boydii [3],16 mm
same,zone of inhibition at 10 µg/disc,Shigella boydii [4],20 mm
same,zone of inhibition at 10 µg/disc,Staphylococcus aureus [5],30 mm
same,zone of inhibition at 10 µg/disc,Shigella boydii [6],6 mm
same,zone of inhibition at 10 µg/disc,Salmonella typhimurium [7],11 mm
same,zone of inhibition at 10 µg/disc,Listeria monocytogenes [8],16 mm
same,zone of inhibition at 10 µg/disc,Escherichia coli [9],10 mm
O=C(N[C@H](CO)[C@H](O)c1ccc([N+](=O)[O-])cc1)C(Cl)Cl [CHLORAMPHENICOL],zone of inhibition at 30 µg/disc,Pseudomonas putida [10],12 mm
same,zone of inhibition at 30 µg/disc,Escherichia coli [11],30 mm
same,zone of inhibition at 30 µg/disc,Proteus [12],27 mm
same,zone of inhibition at 30 µg/disc,Shigella boydii [13],18 mm
same,zone of inhibition at 30 µg/disc,Listeria monocytogenes [14],18 mm
same,zone of inhibition at 30 µg/disc,Shigella boydii [15],18 mm
same,zone of inhibition at 30 µg/disc,Shigella boydii [16],22 mm
same,zone of inhibition at 30 µg/disc,Staphylococcus aureus [17],25 mm
same,zone of inhibition at 30 µg/disc,Salmonella typhimurium [18],19 mm
O=C(O)c1cn(C2CC2)c2cc(N3CCNCC3)c(F)cc2c1=O [CIPROFLOXACIN],zone of inhibition at 5 µg/disc,Shigella boydii [19],30 mm
same,zone of inhibition at 5 µg/disc,Staphylococcus aureus [20],25 mm
same,zone of inhibition at 5 µg/disc,Pseudomonas putida [21],20 mm
same,zone of inhibition at 5 µg/disc,Proteus [22],27 mm
same,zone of inhibition at 5 µg/disc,Shigella boydii [23],25 mm
same,zone of inhibition at 5 µg/disc,Listeria monocytogenes [24],17 mm
same,zone of inhibition at 5 µg/disc,Shigella boydii [25],20 mm
same,zone of inhibition at 5 µg/disc,Salmonella typhimurium [26],23 mm
NC[C@H]1O[C@H](O[C@H]2[C@H](O)[C@@H](O[C@H]3O[C@H](CO)[C@@H](O)[C@H](N)[C@H]3O)[C@H](N)C[C@@H]2N)[C@H](O)[C@@H](O)[C@@H]1O [KANAMYCIN],zone of inhibition at 30 µg/disc,Pseudomonas putida [10],14 mm
same,zone of inhibition at 30 µg/disc,Escherichia coli [11],25 mm
same,zone of inhibition at 30 µg/disc,Proteus [12],25 mm
same,zone of inhibition at 30 µg/disc,Shigella boydii [13],15 mm
same,zone of inhibition at 30 µg/disc,Listeria monocytogenes [14],15 mm
same,zone of inhibition at 30 µg/disc,Shigella boydii [15],14 mm
same,zone of inhibition at 30 µg/disc,Shigella boydii [16],16 mm
same,zone of inhibition at 30 µg/disc,Staphylococcus aureus [17],25 mm
same,zone of inhibition at 30 µg/disc,Salmonella typhimurium [18],20 mm
Cc1cc(NS(=O)(=O)c2ccc(N)cc2)no1 [SULFAMETHOXAZOLE],zone of inhibition at 25 µg/disc,Staphylococcus aureus [27],24 mm
same,zone of inhibition at 25 µg/disc,Salmonella typhimurium [28],17 mm
same,zone of inhibition at 25 µg/disc,Shigella boydii [29],19 mm
same,zone of inhibition at 25 µg/disc,Shigella boydii [30],20 mm
same,zone of inhibition at 25 µg/disc,Shigella boydii [31],20 mm
same,zone of inhibition at 25 µg/disc,Listeria monocytogenes [32],11 mm
same,zone of inhibition at 25 µg/disc,Proteus [33],20 mm
same,zone of inhibition at 25 µg/disc,Pseudomonas putida [34],18 mm
same,zone of inhibition at 25 µg/disc,Escherichia coli [35],18 mm
